In patent US9968646B2, “Method for treatment of prostatic hyperplasia and/or ameliorating urinary disturbance with banana flower extract” (TCI Co., Ltd., priority 2014, dated 2018):

Columns and labels:
[1] = system: LNCap human prostate cancer cell lines; assay: MTT survival rate of LNCap cells stimulated by testosterone; format: cell-based
Method: In one embodiment, LNCap human prostate cancer cell lines (BCRC 60088) purchased from Bioresource Collection and Research Center (BCRC) are used. 2×10^4 LNCap cells/well are placed in the 96-well plate and cultured for 24 hr. LNCap cells treated with testosterone and various concentrations (0.5 mg/mL and 2.0 mg/mL) of the banana flower extract, and co-cultured for 3 days. LNCap cells are treated with the banana flower extract without testosterone as negative control, and LNCap cells are treated with testosterone without the banana flower extract as vehicle control. The survival rate of LNCap cells is evaluated using the MTT assay, LNCap cells are treated with 1 mg/mL MTT (3-[4,5-dimethyl thiazol-2-yl]-2,5diphenyl tetrazolium bromide) for 2 hr, and dimethyl sulfoxide (DMSO) is added to dissolve blue formazan crystals. An absorbance is measured using a reader at the wavelength of 570 nm.

[2] = system: dihydrotestosterone synthesis in LNCap cells; assay: Dihydrotestosterone level (ELISA) in LNCap cells stimulated by testosterone; format: cell-based, human; details: co-treatment of testosterone and 0.2 mg/mL finasteride; testosterone alone = 100%
Method: 1×10^5 LNCap cells/well are cultured with RPMI 1640 containing 10% FBS and 1% sodium pyruvate in 9-cm culture plate for 36 hr. […] And all LNCap cells are stimulated by 10 μg/mL testosterone.
Cell lysis is processed prior to analysis of dihydrotestosterone level: LNCap cells are dispersed with typsin and centrifuged to collect the suspension cells, the suspension cells are washed with cold PBS, and the suspension cells are resuspended in PBS(1×) and sonicated 4 times; or LNCap cells are frozen at −20° C. or lower, and stirred frequently until thawed for 3 times to destroy cells. The destroyed cells are centrifuged at 150× g at 2-8° C. for 10 min to remove the cell debris. Finally, dihydrotestosterone ELISA Kit (Uscn Life science Inc.) is used to detect dihydrotestosterone level.
LNCap cells are treated with the banana flower extract of the present invention and testosterone as above-mentioned method, LNCap cells treated with the banana flower extract without testosterone as negative control, and LNCap cells treated with testosterone without the banana flower extract as vehicle control, are detected dihydrotestosterone level. […] As co-treating with testosterone and the banana flower extract (2 mg/mL), the dihydrotestosterone synthesis rate of LNcap cells is decreased about 30%. […]

SMILES | survival rate of LNcap cells ([1]; testosterone alone, without testosterone = 100%) | LNcap cell proliferation stimulated by testosterone ([1]; co-treatment of testosterone and 0.2 mg/mL finasteride) | reduction of dihydrotestosterone synthesis rate [2]
C[C@]12CC[C@H]3[C@@H](CCC4=CC(=O)CC[C@@]43C)[C@@H]1CC[C@@H]2O [testosterone] | about 110% |  | 
CC(C)(C)NC(=O)[C@H]1CC[C@H]2[C@@H]3CC[C@H]4NC(=O)C=C[C@]4(C)[C@H]3CC[C@]12C [finasteride] |  | slightly inhibit | 10%
